Laboratory results as given in patent US11701379B2, “In vitro and in vivo intracellular delivery of siRNA via self-assembled nanopieces” (Rhode Island Hospital, priority 2018, dated 2023).

Tested on: MMP-13 mRNA
Test: MMP-13 molecular beacon validation in chondrocytes with/without IL-1β
Assay type: cell-based, mouse
Conditions: realtime rtPCR
Protocol: Fluorescence labeled GAPDH molecular beacon and fluorescence labeled MMP-13 molecular beacon or fluorescence labeled scrambled molecular beacon delivered with Nanopieces was added into chondrocytes under standard cell culture conditions or stimulated with 10 ng/mL IL-1β (FIG. 29).
Using an established method (Tyagi et al Nat. Biotech, 1998, 16:49-53), MBs were designed to target mouse MMP-13 or GAPDH mRNA with a fluorophore/quench pair. Scramble sequence MB (Scramble) was verified to not bind with any mouse mRNA via BLAST. In vitro delivery and validation: MBs were delivered into chondrocytes by Nanopieces. Specifically, after stimulation with IL-1β for 24 hours, chondrocytes were co-transfected GAPDH and scramble MBs or GAPDH and MMP-13 MBs via Nanopieces. Real time RT-PCR and fluorescence microscopy were used to verify the stimulation of MMP-13 expression and the successful fluorescence signal resulted from MMP-13 MB.
To test the efficacy of mRNA detection in chondrocytes using MBs delivered by Nanopieces, primary mouse chondrocytes were transfected with MBs either with or without IL-1β treatment. Before IL-1β treatment, the housekeeping GAPDH MB was detected while the MMP-13 MB was not (FIG. 29, left panels). In contrast, after IL-1β treatment, both GAPDH MB and MMP-13 MB were detected, indicating the induction of MMP-13 mRNA levels by IL-1β (FIG. 29, right panels). […]

IL-1β: cytokine used to stimulate chondrocytes
up-regulation of MMP-13 mRNA level: about 10 times
